Laboratory results as given in patent US20220151994A1, “THERAPEUTIC METHODS AND COMPOSITIONS FOR TREATING LYMPHOMA USING 6,8-BISBENZYLTHIO-OCTANOIC ACID” (Rafael Pharmaceuticals, Inc., priority 2019, published 2022).

Key:
[1] = Maximum tolerated dose of CPI-613 as a single agent; format: in vivo; conditions: CPI-613 given as a single agent
Procedure: In the event that the DLT in ≥2 patients is not observed once the 3,000 mg/m^2 cohort has been tested, dose escalation is also considered to be complete since 3,000 mg/m^2 is the MTD of CPI-613 when given as a single agent. Three additional patients will be enrolled at the MTD for a total of six expected patients at this dose level.

[2] = Toxicities/side effects seen in prior CPI-613 studies treating other types of cancers; format: in vivo
Description: Given the limited data for treating Burkitt lymphoma and other hematological malignancies with CPI-613, the following are the most frequent toxicities seen in prior CPI-613 studies treating other types of cancers.

[3] = pH and stability of CPI-613 drug product diluted with D5W; format: physicochemical; conditions: solution in 1M aqueous triethanolamine diluted from 50 mg/mL to as low as 4 mg/mL with D5W
Procedure: A solution of 6,8-bis-benzylthio-octanoic acid in 1M aqueous triethanolamine is diluted from 50 mg/mL to as low as 4 mg/mL with sterile 5% dextrose for injection (D5W) prior to administration. After dilution with D5W, the solution is clear and has a pH of 8.4-8.8. The D5W solution of 6,8-bis-benzylthio-octanoic acid is administered as an IV infusion over two hours via a central venous catheter on days 1-5 of every cycle.
CPI-613 must be diluted from 50 mg/mL to 12.5 mg/mL with 5% Dextrose Water (D5W) (i.e., 1 portion of CPI-613 diluted with 3 portions of D5W) prior to administration. The diluted drug product should be visually inspected for clarity. […] After dilution with sterile D5W, the solution is clear and has a pH of 8.4-8.8.

[4] = Photosensitivity of CPI-613; format: physicochemical
Procedure: Each vial contains 10 mL of CPI-613 at a concentration 50 mg/mL, equivalent to 500 mg of CPI-613. The drug product of CPI-613 is a clear and colorless solution that is free of any particulate matter. CPI-613 should be stored under refrigeration, at 2°-8° C. (36°-46° F.), except when being prepared for administration.

[5] = Compatibility studies with IV infusion sets, IV bags and syringes (Study COM-003); format: physicochemical
Description: Therefore, DEHP-containing IV infusion sets, IV bags or syringes should not be used in mixing or administration of CPI-613. […] Therefore, these 4 types of IV infusion sets, and IV infusion sets that are made with the same materials, can be used to administer CPI-613. […] Therefore, any of these types of syringes, and syringes that are made with the same materials, can be used to administer CPI-613. Also, glass syringes can also be used, since glass (such as glass containers) is compatible with CPI-613 drug product. • Norm-Ject, polyethlyene barrel, polyethylene plunger, latex free (Henke Sass Wolf GMBH) syringes • Becton Dickinson syringes • Terumo syringes • Monoject syringes • Glass syringes

[6] = Animal studies of IV administration of CPI-613; format: in vivo
Procedure: CPI-613 must be administered IV, via an IV catheter that is free flowing and free of air in the dead space of the IV catheter, to minimize vascular irritation, inflammation and acute toxicity of CPI-613. […] To avoid local reactions at and around the site of administration, CPI-613 must be administered via a central venous catheter.
CPI-613 must not be administered as a bolus, but by infusion, at a rate of ˜0.5 mL/min, via a central venous catheter with D5W running at a rate of about 125-150 mL/hr. This is to minimize potential acute toxicity of CPI-613, according to animal studies.

O=C(O)CCCCC(CCSCc1ccccc1)SCc1ccccc1 (stereo not drawn) [CPI-613, 6,8-bis-benzylthio-octanoic acid]
MTD [1]: 3,000 mg/m^2 | Common side effects [2]: nausea, leukocytopenia, neutrophils (neutropenia), fatigue, and elevated alkaline phosphatase (ALP) | Rare but serious side effects [2]: infections, disseminated intravascular coagulation, elevated troponin, and renal failure | pH of solution after dilution with D5W [3]: 8.4-8.8 | Photosensitivity [4]: slightly photosensitive | Compatibility with IV infusion sets ([5]; PVC, latex and polyethylene sets): compatible with 4 commonly used IV infusion sets | Leaching of DEHP from IV infusion sets and IV bags ([5]; Study COM-003): can cause leaching of Diethylhexyl Phthalate (DEHP) | Effect of accidental co-administration of extra air in the dead space of IV catheters ([6]; animal studies, IV administration): potential to induce acute toxicity | Effect of accidental leakage into the perivascular space during IV administration ([6]; in vivo, iv): can induce significant local inflammation
